Where a name gives a salt, the structure may show the parent alone. Read-outs that look alike come from different tables or passages of the source.
How the values were obtained:
[1] = UGT activities in salmon liver microsomes (SLMs) and S9; settings: SLMs (2 mg/mL) and S9 (4 mg/mL), 20 °C, up to 60 min
[2] = set-up: method as in doi:10.5772/intechopen.91700; settings: cited from earlier work
ASG-10 [3] = assay: Alamar Blue assay, metabolic activity/viability of ASG-10; format: cell-based, Atlantic salmon (Salmo salar); settings: ASG-10, 121 or 303 µM BZ, 24 h
Procedure: Alamar Blue assay: The metabolic activity/viability of the ASG-10 cell line was measured using the Alamar Blue assay according to the manufacturer’s protocol (Thermo Fisher). After exposure to test compounds with potential cell toxicity, Alamar Blue was added to the cell culture, and incubated for 3 h. […] The fluorescence (excitation: 555 nm/emission: 585 nm) was quantified using a Spectramax i3x plate reader (Molecular Devices, San Jose, CA, USA).

[4] = set-up: method as in doi:10.1016/S0166-445X(96)00792-8; settings: channel catfish; cited from earlier work
ASG-10 [5] = assay: CellTox Green cytotoxicity assay in ASG-10; format: cell-based, Atlantic salmon (Salmo salar); settings: ASG-10, 121 or 303 µM BZ, 48 h
Procedure: CellTox™ Green assay: The non-toxic dye CellTox™ Green stains DNA in cells with impaired membrane integrity. Binding interactions with DNA produce a fluorescence signal that is proportional to cytotoxicity (necrotic, late apoptotic cells). CellTox™ Green dye was added to the cells as described by the manufacturer (Promega) and fluorescence visualized by microscopy (Zeiss Observer A1, Carl Zeiss, Oberkochen, Germany).

methemoglobin = tested on: methemoglobin; set-up: method as in PMID 32974865; settings: immersion in a sedating BZ dose or repeated anesthesia; cited from earlier work
[6] = cited from earlier work
[7] = cited from earlier work; remark: listed apart in the source
[8] = set-up: method as in PMID 1897251; settings: rainbow trout, within 3 h, mainly as AcBZ; cited from earlier work
Zebrafish embryos = tested on: Zebrafish embryos; set-up: method as in PMID 27571242; settings: 48 h exposure; cited from earlier work
[9] = CYP activities in salmon liver microsomes (SLMs) and S9; settings: both SLMs (2 mg/mL protein) and S9 (4 mg/mL protein), 20 °C, up to 60 min
[10] = Incubation of N-acetylated BZ (AcBZ) in SLMs, hydroxylation; format: in vitro ADME, Atlantic salmon; settings: AcBZ as starting substance, 1 h
Procedure: A volume of 30 µL of 1 mg/mL BZ in 100% MeOH was evaporated (40 °C, N2) in a 1.5 mL vial. The residue was redissolved in 100 µL acetic anhydride (Sigma) and 100 µL pyridine (Sigma). The vial was placed at room temperature for 18 h. Subsequently, the reaction was stopped by the addition of 200 µL 100% MeOH. After evaporation, the residue was dissolved in 150 µL 100% MeOH (solution A). As control, 30 µL of BZ solution was evaporated and re-dissolved in 150 µL 100% MeOH (solution B). Afterwards, 3 µL of solutions A and B were incubated in SLMs as described above.

ASG-10 [11] = assay: BZ metabolism in ASG-10 (LC-HRMS/MS); format: in vitro ADME, Atlantic salmon (Salmo salar); settings: 303 µM BZ, 24 h, 45,000 or 90,000 cells/well, LC-HRMS peak areas
Procedure: BZ, an anesthetic commonly used in aquaculture, was used to evaluate the potential activity of N-acetyltransferases (NAT) and esterases in ASG-10, SLMs and S9. The production of BZ-related metabolites was determined by liquid chromatography high-resolution tandem mass spectrometry (LC-HRMS/MS). When available, reference standards were used for the specification of metabolites.
BZ metabolism was investigated in ASG-10 cells plated in a 96-well plate as described in Section 2.2. The culture medium was replaced by fresh medium containing BZ (Table 1).
(§1) BZ biotransformation products were determined using a Q Exactive™ hybrid quadrupole-Orbitrap mass spectrometer equipped with a heated electrospray ion source (HESI-II) and coupled to a Vanquish UHPLC system (Thermo Fisher Scientific). […]
(§2) Mass spectra were acquired in the full scan mode, applying sequential data-dependent top 5 analysis (ddMS2-top5) with an inclusion list containing masses of interest. […] BZ and BZ-related compounds were determined by targeted parallel reaction monitoring (PRM). […]
The mobile phase was composed of solvent A (water) and solvent B (MeOH), both containing 0.1% formic acid. […] Raw data were acquired by Xcalibur (Version 4.0, Thermo Fisher Scientific), and molecular formula assignments and mass error were evaluated within the same software (Elemental Composition tab). […]

ASG-10 [12] = assay: CYP activities in ASG-10: metabolite formation from specific substrates (LC-TQMS); settings: non-induced cells, combined substrates 2; 5; 10 µM, 24 h, 19 °C
CYP1A1 [13] = tested on: CYP1A1; set-up: method as in doi:10.1002/etc.5620161220; settings: juvenile Atlantic salmon; cited from earlier work
CYP2K1 = tested on: CYP2K1; set-up: method as in doi:10.1002/etc.5620161220; settings: juvenile Atlantic salmon; cited from earlier work
CYP3A27 = tested on: CYP3A27; set-up: method as in doi:10.1002/etc.5620161220; settings: juvenile Atlantic salmon; cited from earlier work
[14] = BZ metabolism in SLMs and S9 (LC-HRMS/MS); settings: SLMs 1 µM BZ, S9 3 µM BZ (Figure 9 legend: 1 µM), 1 h
Procedure: The production of BZ-related metabolites was determined by liquid chromatography high-resolution tandem mass spectrometry (LC-HRMS/MS).
Additionally, BZ metabolism was investigated in SLMs (1 µM BZ) and S9 (3 µM BZ) (Table 1). The incubations were first performed separately for phase I and phase II metabolism, and a combined assay was performed afterwards. The reaction mixture (total assay volume 0.5 mL) contained 0.8 mM NADPH, 0.7 mM NADP+, 7.5 mM UDPGA and 0.3 mM UDPAG. Aliquots (150 µL) were drawn at 0, 30 and 60 min and mixed with an equal volume of ice-cold 100% MeCN. […] After filtration (Costar Spin-X® 0.22 mm Nylon filter; Corning, Inc.; Corning, NY, USA), the concentrated samples were analyzed using LC-HRMS/MS.
as §1, §2

CYP1A [15] = tested on: CYP1A; set-up: method as in PMID 1897246; settings: rainbow trout liver primary cells, 3.6 to 360 nM BNF, 48 h, dose-dependent; cited from earlier work
CYP1A [16] = tested on: CYP1A; set-up: method as in doi:10.1002/etc.5620160509; settings: cited from earlier work
CYP1A [17] = tested on: CYP1A; set-up: method as in PMID 10630570; settings: primary carp hepatocytes, 20 nM, 18 h; cited from earlier work
CYP1A [18] = assay: EROD assay in BNF-stimulated ASG-10; format: cell-based, Atlantic salmon (Salmo salar); settings: ASG-10, BNF 1 to 100 nM, 24 h
Procedure: CYP1A induction in BNF-stimulated ASG-10 was measured using the ethoxyresorufin-O-deethylase (EROD) assay. CYP1A converts 7-ethoxyresorufin to resorufin, which can be measured by fluorescence spectroscopy. The assay was performed as described in [17], with minor modifications. Briefly, the cells were seeded in a black 96-well plate as described in Section 2.2. After two days, the cells were incubated with the CYP1A inducer β-naphthoflavone (BNF; 1–100 nM) for 24 h. BNF was dissolved in DMSO. The final DMSO concentration in the cell culture was 0.1%. Appropriate controls containing the same amount of DMSO were included in each experiment. The next day, the culture medium was replaced with 200 µL EROD assay media (DMEM w/o phenol red; 10% FBS, 8 µM 7-ethoxyresorufin), and resorufin fluorescence (excitation: 530 nm/emission: 580 nm) was detected after 60 min using a Spectramax i3x plate reader.

CYP1A [19] = tested on: CYP1A; set-up: method as in doi:10.1002/etc.5620160509; settings: PLHC-1, 24 h; cited from earlier work
CYP1A [20] = assay: CYP1A immunochemical analysis (immunoblot) in BNF-stimulated ASG-10; format: cell-based, Atlantic salmon (Salmo salar); settings: 24 h
Procedure: The ASG-10 cells were seeded into 6-well plates as described in Section 2.2. After two days, the cells were stimulated with BNF (1–100 nM, 24 h), a well-known non-toxic inducer of CYP1A protein expression. After exposure, the cells were washed twice in ice-cold PBS and placed at −70 °C until the next day. The cells were then scraped in cell lysis buffer with 0.8% SDS and 1% proteinase inhibitor cocktail added and centrifuged (10,000× g, 1 min) through use of the QIAshredder for homogenization. The protein concentrations were quantified by using the Bio-Rad DC kit (Hercules, CA, USA) and the samples were adjusted to equal protein concentration with lysis buffer before being denatured through the addition of NuPage lithium dodecyl sulfate (LDS) sample buffer and NuPage reducing agent as described by the manufacturer (Invitrogen, Waltham, MA, USA). Blotting was performed using the NuPage Novex system from Invitrogen (Thermo Fisher), applying […] protein per well on a 4–12% NuPage BisTris gel. Separation was performed under reducing conditions for 40 min at 200 V in 3-(N-morpholino) propane sulfonic acid (MOPS)–SDS running buffer using the Novex Sharp pre-stained standard with a range of 3.5–260 kDa. […]

CYP1A1 [21] = tested on: CYP1A1; set-up: method as in PMID 12413795; settings: BNF exposure; cited from earlier work
[22] = different fish species including rainbow trout and Atlantic salmon

CC(=O)NCCc1c[nH]c2ccc(O[C@@H]3O[C@H](C(=O)O)[C@@H](O)[C@H](O)[C@H]3O)cc12 [NAS-GlcA, N-acetyl serotonin β-D-glucuronide]
Formation of UGT-specific metabolites in SLMs and S9 [1]: low

C=CCN1CC[C@]23c4c5ccc(O[C@@H]6O[C@H](C(=O)O)[C@@H](O)[C@H](O)[C@H]6O)c4O[C@H]2C(=O)CC[C@@]3(O)[C@H]1C5 [NLX-GlcA, naloxone-3β-D glucuronide]
Formation of UGT-specific metabolites in SLMs and S9 [1]: highest metabolite level

CN1CCN(CCCN2c3ccccc3Sc3ccc(C(F)(F)F)cc32)CC1 [TFP, trifluoperazine dihydrochloride]
Formation of UGT-specific metabolites in SLMs and S9 [1]: not measurable

CCOC(=O)c1ccc(N)cc1 [BZ, ethyl 4-aminobenzoate]
n-octanol/water coefficient (pKOW) [2]: 1.44
Metabolic activity or viability (Alamar Blue) (ASG-10 [3]): did not affect
time detected in most tissues after water exposure to BZ [4]: up to 144 h
Cytotoxicity (Celltox Green assay) (ASG-10 [5]): no cytotoxicic effects
blood levels of methemoglobin (methemoglobin): increased blood levels of methemoglobin
distribution volumes [6, 22]: rather high
mean residence times [6, 22]: below 15 min
plasma half-life ([6]; salmonids): less than 2 h
time to maximal concentrations in blood ([6]; under water exposure): less than 2 min
solubility in more lipidic solvents relative to water ([7]; MeOH and chloroform): ~1000 times
water solubility ([7]; non-salt BZ, 20 °C): 400 µg/mL
share of applied BZ dose eliminated through the gills [8]: about 59%
AcBZ and PABA together as share of the total BZ amount (Zebrafish embryos): 90%

CC(=O)Nc1ccc(C(=O)O)cc1 [AcPABA, p-acetaminobenzoic acid]
time detected in most tissues after water exposure to BZ [4]: up to 144 h

O=c1[nH]c2cc(Cl)c(O)cc2o1 [6-OH-CH, 6-hydroxychlorzoxazone]
Formation of CYP-specific metabolites / substrate conversion in SLMs and S9 [9]: low

CCOC(=O)c1ccc(NC(C)=O)cc1 [AcBZ, acetylbenzocaine]
Hydroxylation product after incubation in SLMs [10]: no longer detectable
time detected in most tissues after water exposure to BZ [4]: up to 144 h
BZ metabolites produced in ASG-10 cells (ASG-10 [11]): major biotransformation product

CN1CC[C@@]23CCCC[C@@H]2[C@@H]1Cc1ccc(O)cc13 [DOR, dextrophan]
Formation of metabolites of specific CYP substrates in ASG-10 (ASG-10 [12]): observed

CCCCCCCCCc1ccc(O)cc1 [4-nonylphenol]
CYP1A1 activity in liver (CYP1A1 [13]): dose-dependently reduced
CYP2K1 activity in liver (CYP2K1): dose-dependently reduced
CYP3A27 activity in liver (CYP3A27): dose-dependently reduced

Nc1ccc(C(=O)O)cc1 [PABA, p-aminobenzoic acid]
BZ metabolites in SLM and S9 incubations [14]: not detectable

O=c1cc(-c2ccccc2)oc2ccc3ccccc3c12 [BNF, β-naphthoflavone]
maximum EROD rate increase (CYP1A [15]): nine-fold
increase in EROD enzyme activity (CYP1A [16]; PLHC-1, 100 nM BNF): eightfold
increase in EROD enzyme activity (CYP1A [16]; PLHC-1, 1 µM BNF): 100 fold
increase in the EROD rate (CYP1A [17]): 30 fold
CYP1A enzyme activity (EROD assay) (CYP1A [18]): concentration-dependent increase
BNF concentration required to produce a detectable CYP1A protein increase (CYP1A [19]): 1 µM
CYP1A protein increase (CYP1A [20]; ASG-10, 1 nM BNF): visible CYP1A protein increase
CYP1A protein (immunochemical analysis) (CYP1A [20]; ASG-10, BNF 1 to 100 nM): concentration-dependent increase
CYP1A1 induction in salmon liver (CYP1A1 [21]): can be induced

Cc1ncc2n1-c1ccc(Cl)cc1C(c1ccccc1F)=NC2O (stereo not shown) [4-OH-MDZ, 4-hydroxymidazolam]
Formation of metabolites of specific CYP substrates in ASG-10 (ASG-10 [12]): observed

CCOC(=O)c1ccc(NO)cc1 [BZOH, Benzocaine hydroxylamine]
BZ metabolites produced in ASG-10 cells (ASG-10 [11]): produced

Source: article PMC10303838, “Atlantic Salmon Gill Epithelial Cell Line (ASG-10) as a Suitable Model for Xenobiotic Biotransformation” (Metabolites, 2023)
